Measured values: paper PMC8800111 (The Journal of Biological Chemistry, 2021)
Values after ≈ are worked out from the molar mass of the structure shown.

Assays:
MDA-MB-468 cells = experiment: Viability assay (CellTiter-Glo, number of viable cells); assay type: cell-based, human; conditions: 300 μg/ml folinic acid, 48 h
Method: We specifically hypothesized that folinic acid would prevent pyrimethamine-mediated loss of viability and loss of STAT3 transcriptional activity by bypassing DHFR and restoring the folate-dependent processes required for STAT3 transcriptional activity. […] Since MDA-MB-468 cells are dependent on STAT3 activity for survival, loss of viability can reflect STAT3 inhibition.
Cells (3–5 × 10^3) were plated in white opaque 96-well plates. The next day, cells were treated as indicated. ATP levels were detected at the indicated time points as a proxy for number of viable cells using the CellTiter-Glo Luminescent Cell Viability Assay (Promega). Luminescence was measured using a Luminoskan Ascent Microplate Reader (Labsystems).

[1] = system: STAT3 target genes in SKBR3 cells; experiment: STAT3 target gene expression by qRT-PCR in SKBR3 cells; assay type: cell-based, human; conditions: 300 μg/ml folinic acid
Method: (§1) Cells were stimulated with 10 ng/ml interleukin 6 (Peprotech) or 10 ng/ml OSM (Peprotech). Cells were stimulated for 15 min for whole cell lysate immunoblotting, 60 to 90 min for qRT–PCR, and 5 to 6 h for luciferase reporter assays.
Total RNA was extracted from cells using the RNeasy Mini Kit (Qiagen). Complementary DNA was generated using the TaqMan Reverse Transcription Reagents (Invitrogen). qPCR was performed in triplicate or quadruplicate using the Power SYBR Green PCR Master Mix (Invitrogen) on a 7500 Real-Time PCR System (Applied Biosystems) or a QuantStudio 6 Flex Real-Time PCR System (Applied Biosystems). Specificity of amplification was confirmed by melting curve analysis. Cycle threshold (CT) values for target genes were normalized to the endogenous reference gene GAPDH. Primer sequences (Table S3) were designed from the University of California Santa Cruz genome browser reference mRNA sequences using Primer3 ([43]).

[2] = system: STAT3 target genes in U3A cells; experiment: STAT3 target gene expression by qRT-PCR in U3A cells; assay type: cell-based, human
[3] = system: STAT3 transcriptional activity in U3A cells; experiment: STAT3-dependent luciferase reporter assay; assay type: cell-based, human
Method: STAT3-dependent luciferase activity was then used as a measure of STAT3 transcriptional activity.
as §1
U3A cells (3 × 10^3) were plated in white opaque 96-well plates and allowed to adhere overnight. For siRNA-mediated knockdown, cells were left in the incubator for 48 h. For drug-mediated inhibition, cells were pretreated with compound for 1 h. Cells were then stimulated with cytokine for 5 to 6 h to activate STAT3. Luciferase activity was detected using the Bright-Glo Luciferase Assay System (Promega) and quantitated using a Luminoskan Ascent Microplate Reader (Labsystems).

[4] = system: STAT3 target genes in MDA-MB-468 cells; experiment: STAT3 target gene expression by qRT-PCR in MDA-MB-468 cells; assay type: cell-based, human; conditions: MDA-MB-468, 10 μM, 24 h
[5] = Solubility limit of folic acid in cell experiments; assay type: physicochemical; conditions: culture media; read-out: maximum concentration testable because of solubility limitations
[6] = system: polar metabolites of MDA-MB-468 cells; experiment: LC/MS-based metabolite profiling; assay type: cell-based, human; conditions: MDA-MB-468, 24 h, 10 μM pyrimethamine or 0.05 μM methotrexate
[7] = system: pSTAT3 in MDA-MB-468 cells; experiment: STAT3 tyrosine phosphorylation by immunoblotting; assay type: cell-based, human; conditions: 24 h, immunoblot

For `Nc1nc(=O)c2c([nH]1)NCC(CNc1ccc(C(=O)N[C@@H](CCC(=O)O)C(=O)O)cc1)N2C=O` (mixture of isomers) [folinic acid], the “effect on TG101-dependent loss of viable cells” value (MDA-MB-468 cells) was “very little effect”, the “effect on pyrimethamine-dependent and methotrexate-dependent decreases in the number of viable cells” value (MDA-MB-468 cells) was “almost completely prevented” and the “effect on pyrimethamine-mediated loss of OSM-stimulated BCL6 expression” value [1] was “partially prevented”. The “effect on pyrimethamine-mediated loss of OSM-stimulated BCL6 expression” value ([2]; 300 μg/ml folinic acid) was “completely prevented”, the “rescue of the effect of methotrexate on STAT3-dependent luciferase” value ([3]; 1 μM methotrexate) was “able to rescue” and the “effect on TG101-mediated loss of STAT3-dependent luciferase” value ([3]; 10 μM TG101) was “no effect”. The “effect on the ability of pyrimethamine to inhibit OSM-stimulated STAT3 transcriptional activity” value ([3]; 10 μM pyrimethamine, tested concentrations of folate) was “significantly reduced”.
In the case of `Cc1cnc(Nc2ccc(OCCN3CCCC3)cc2)nc1Nc1cccc(S(=O)(=O)NC(C)(C)C)c1` [TG101, TG101348], the “SOCS3 expression in the presence of folinic acid” value ([4]; 300 μg/ml folinic acid) is reported as “still reduced” and the “SOCS3 expression in the absence of folinic acid” value [4] is reported as “significantly reduced”.
`Nc1nc2ncc(CNc3ccc(C(=O)N[C@@H](CCC(=O)O)C(=O)O)cc3)nc2c(=O)[nH]1` [folic acid] showed a solubility [5] of 10 µg/mL (≈ 22.7 µM).
In the case of `CN(Cc1cnc2nc(N)nc(N)c2n1)c1ccc(C(=O)N[C@@H](CCC(=O)O)C(=O)O)cc1` [methotrexate], the “deoxyuridine monophosphate level compared with DMSO or ruxolitinib” value [6] is reported as “significantly accumulated”, the “purine synthesis intermediates 5-aminoimidazole-4-carboxamide ribonucleotide and glycineamide ribonucleotide” value [6] is reported as “significant increase” and the “OSM-stimulated expression of BCL6 and STAT3” value ([2]; 1 μM 1 h, 10 ng/ml OSM 90 min) is reported as “significantly reduced”. For the same compound, the “total / constitutive STAT3 tyrosine phosphorylation (pSTAT3)” value [7] was “decrease” and the “OSM-stimulated STAT3 activity (luciferase)” value ([3]; 0.5 and 1 μM, 1 h pretreatment, OSM 5 h) was “decreased”.
With `Cc1cn([C@H]2C[C@H](O)[C@@H](CO)O2)c(=O)[nH]c1=O` [thymidine] the “effect on pyrimethamine inhibition of STAT3 transcriptional activity (viable cells, luciferase, target genes)” value ([3]; thymidine added with 10 μM pyrimethamine) was “reduced the ability” and the “rescue of methotrexate-mediated loss of STAT3 activity” value ([3]; thymidine added with methotrexate) was “unable to rescue”.
